Assay: Metabolite identification in hepatocytes
Format: in vitro ADME, mice, rats, dogs, monkeys, and humans
Settings: all tested species, product 1770-O-glucuronide
Procedure: BKI-1841 was also evaluated in these assays (Table 1). All results from these assays were favorable, including falling within the solubility range that correlated with efficacy for the AC scaffold ([17]).

Compound: CCOc1ccc2cc(-c3nn(C(C)(C)CCO)c(N)c3C(N)=O)ccc2c1 [BKI-1770]
- main mechanism of metabolism: glucuronylation

Source: article PMC10112232, “Comparison of Toxicities among Different Bumped Kinase Inhibitor Analogs for Treatment of Cryptosporidiosis” (Antimicrobial Agents and Chemotherapy, 2023)
